Reference: US20220281931A1, “CHEMICALLY INDUCIBLE POLYPEPTIDE POLYMERIZATION” (Dana-Farber Cancer Institute, Inc., priority 2019, published 2022)
Residues, ends and D or L forms follow the SMILES beside them. *: point of attachment. Cbz = O=C(OCc1ccccc1)*

Legend:
[1] = target: T1, eGFPBCL6 stability reporter (Homo sapiens, UniProt P41182); test: Degradation of BCL6 reporter constructs in HEK293T cells (flow cytometry); format: cell-based; settings: for effect on BI-3802-induced degradation of eGFPBCL6^FL: HEK293TCas9 cells, 0.5 μM MLN7243, 5 μM MLN4924 or 10 μM MG132 for 3 hours plus 1 μM BI-3802 for 1 hour
T1 construct: the full length BCL6 (BCL6^FL) was fused in-frame with eGFP; expressed in transfected cells; host or cells: HEK293TCas9 cells, lentiviral transduction (Artichoke vector)
Method: Lentivirus was packaged in HEK293T cells using TransIT (Mirus) and subsequently used for spin infection.
HEK293TCas9 cells expressing indicated constructs in “Artichoke” or “Cilantro2” stability reporter vectors (PGK or SFFV Target-eGFP-IRES-mCherry, puromycin resistance) were plated in 96 well plates and treated for indicated times. BCL6-eGFP and mCherry expression were quantified by flow cytometry (CytoFLEX, Beckman or LSR Fortessa flow cytometer BD Biosciences). All degradation assays were done in at least triplicates. Geometric means of eGFP and mCherry fluorescent signals for live and mCherry positive cells were exported using flow cytometry analysis software (FlowJo, BD). Ratios of eGFP to mCherry were normalized to the average of DMSO-treated controls.

SuDHL4Cas9 cells = test: Whole proteome quantification using tandem mass tag mass spectrometry; format: cell-based, human; settings: SuDHL4 cells, 1 μM compound, 4 hours
Method: 10×10^6 SuDHL4Cas9 cells were treated with DMSO, 1 μM BI-3802 or 1 μM BI-3812 for 1 h or 4 h in triplicates and cells were harvested by centrifugation. Samples were processed, measured and analyzed as previously described (Donovan, K. A. et al. Thalidomide promotes degradation of SALL4, a transcription factor implicated in Duane Radial Ray syndrome. Ehfe 7, doi:10.7554/eLife.38430 (2018)). Data are available in the PRIDE repository (PXD016185).

[2] = target: T2, BCL6-eGFP fusion construct (Homo sapiens, UniProt P41182); test: Live cell imaging of BCL6-eGFP foci in HEK293T cells; format: cell-based; settings: eGFPBCL6^1-250, 10 μM BI-3812 added 75 minutes after 1 μM BI-3802
T2 construct: expressed in transfected cells; host or cells: HEK293TCas9 cells, lentiviral transduction (Cilantro2 vector)
Method: 1×10^3 HEK293T cells per cm^2 were seeded in a μ-Slide 8 Well chamber (ibidi) and cultured for 18-24 h under standard growth conditions. Cell culture medium was exchanged to CO2 independent media (Gibco) and imaged with the DeltaVision Ultra High-Resolution Microscope (GE Healthcare, 100×lens, oil refraction index=1.520). The following acquisition parameters were used: Image size […], binning 1×1, GFP exposure time 0.08 sec. and the Neutral Density (% T) filter 32%. To capture foci within all cell volume, around 26μm per cell was imaged every 0.4-0.5 μm. Images were deconvolved (10 cycles, conservative conditions) and projected using maximal intensity by softWoRx® 7.0.0. Images for movies were taken every 10 minutes and combined to a movie by QuickTime.

BCL6^5-129 = target: T3, BCL6^5-129 (Homo sapiens, UniProt P41182); test: BCL6-BCoR TR-FRET (compound binding assay); settings: 0.1 μM FITCBCoR polypeptide, 0.1 μM BiotinBCL6^5-129
T3 construct: mixing 100 nM biotinylated BCL6^5-129, 100 nM N-terminal FITC-labeled BCoR peptide; made in house; host or cells: Trichoplusia ni High Five insect cells, baculovirus
Method: Competitive titration of BI-3802 or BI-3812 were carried out by mixing 100 nM biotinylated BCL6^5-129, 100 nM N-terminal FITC-labeled BCoR peptide (sequence: […]), and 2 nM terbium-coupled streptavidin in the same assay buffer. After dispensing the assay mixture (15 μL volume), increasing concentrations of compounds were dispensed in a 384-well microplate (Corning, 4514) using a D300e Digital Dispenser (HP) normalized to 1% DMSO. The 520/490 nm ratios were measured as described above and plotted to calculate the KD^APP values using dose-response analysis standard four parameter log-logistic curves using the dr4pl R package.

BCL6^5-360 - SIAH1^SBD = target: T4, BCL6^5-360 - SIAH1^SBD (Homo sapiens, UniProt P41182); test: BCL6-SIAH1 TR-FRET; format: biochemical; settings: in vitro, increasing compound concentration
T4 construct: 200 nM BodipyFL-labeled BCL6^5-360 variants; His6 (N); Spy (C); made in house; host or cells: Trichoplusia ni High Five insect cells, baculovirus
Method: After dispensing the assay mixture (15 μL volume), increasing concentrations of compounds were dispensed in a 384-well microplate (Corning, 4514) using a D300e Digital Dispenser (HP) normalized to 1% DMSO. After excitation of terbium fluorescence at 337 nm, emission at 490 nm (terbium) and 520 nm (BodipyFL) were recorded with a 70 us delay over 600 μs to reduce background fluorescence, and the reaction was followed over 60 cycles of each data point using a PHERAstar FS microplate reader (BMG Labtech). The TR-FRET signal of each data point was extracted by calculating the 520/490 nm ratio. The half-maximal effective concentration (EC50) values were estimated using dose-response analysis standard four parameter log-logistic curves, fitted to the experimental data using […] package. […] After dispensing the assay mixture, increasing concentration of BodipyFL-BCL6^5-360 was added to the SIAH1 mixture in a […] (7.5 μL each, total 15 μL assay volume). The 520/490 nm ratios were measured in as described above and plotted to calculate the KD^APP values using dose-response analysis standard four parameter log-logistic curves using […] package.

Q: With NS(=O)(=O)OC[C@@H]1C[C@@H](n2ccc3c(N[C@H]4CCc5ccccc54)ncnc32)C[C@@H]1O [MLN4924] as the molecule, how does the “effect on BI-3802-induced degradation of eGFPBCL6^FL” value (from here on “effect … of eGFPBCL6^FL”) [1] read?
A: not by inhibition of the neddylation pathway with MLN4924

Q: Which “block of BI-3802-induced BCL6 degradation” value ([1]; HEK293T cells expressing eGFPBCL6^1-275, simultaneous BI-3802 and excess BI-3812, 24 hours) does the source give for CNC(=O)COc1cc2cc(Nc3nc(N4CCC(C(=O)N(C)C)CC4)ncc3Cl)cc(OC)c2n(C)c1=O [BI-3812, 1-(5-chloro-4-((8-methoxy-1-methyl-3-(2-(methylamino)-2-oxoethoxy)-2-oxo-1,2-dihydroquinolin-6-yl)amino)pyrimidin-2-yl)-N,N-dimethylpiperidine-4-carboxamide] here?
A: efficiently blocked BI-3802-induced BCL6 degradation

Q: And the “degradation of full-length BCL6 reporter (eGFPBCL6^FL)” value ([1]; HEK293T cells, 1 μM, 1 hour)?
A: did not alter stability of the reporter

Q: And the “change in polypeptide abundance (whole proteome)” value (SuDHL4Cas9 cells)?
A: did not alter the abundance of any polypeptide

Q: And the “reversal of BI-3802-induced foci” value [2]?
A: fully reversible

Q: And the “affinity of compound to BCL6 (BCoR peptide competition)” value (BCL6^5-129)?
A: comparable affinity

Q: And the “effect on the BCL6-SIAH1 interaction (TR-FRET)” value (BCL6^5-360 - SIAH1^SBD)?
A: did not influence the BCL6-SIAH1 interaction

Q: Which “effect … of eGFPBCL6^FL” value [1] does the source give for NS(=O)(=O)OC[C@H]1C[C@@H](Nc2ccnc3cc(-c4cccc(SC(F)(F)F)c4)nn23)[C@H](O)[C@@H]1O [MLN7243] here?
A: attenuated

Q: Which “effect … of eGFPBCL6^FL” value [1] does the source give for CC(C)C[C@@H](C=O)NC(=O)[C@H](CC(C)C)NC(=O)[C@H](CC(C)C)NC(=O)OCc1ccccc1 [MG132] (Cbz-Leu-Leu-Leu-aldehyde) here?
A: attenuated
